What all share (assay): NCI tumour cell line growth inhibition, 48 h
Assay [1] concerns MOLT-4.
The subject of assay [2] is OVCAR-4.
Assay [3] relates to U-251.
In assay [4] the test system is SNB-19.
Assay [5] concerns NCI-H23.
Assay [6] has as its system SF-539.
Assay [7] relates to HCT-15.
Assay [8] concerns SNB-75.
Assay [9] relates to M14.
Assay [10] has as its system EKVX.
The test system of assay [11] is A498.
The test system of assay [12] is SN12C.
In assay [13] the test system is KM12.
Assay [14] deals with OVCAR-5.
The test system of assay [15] is SR.
Assay [16] concerns UACC-62.
For assay [17], the system named is SW-620.
Assay [18] deals with NCI-H226.
Assay [19] has as its system COLO 205.
The subject of assay [20] is SF-295.

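Where inhibition never reached the appropriate level, the endpoint shown equals the highest concentration tested. Otherwise, values were interpolated linearly from a five-concentration, 48-hour dose response in 96-well plates. GI50: concentration for 50% inhibition of growth.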 Active and inactive are the calls of the source. No stated cut-off is given here; in the data, active = GI50 up to about 1.1 µM and inactive = higher. Where only a bound is given, the exact number is not on record here.

In the case of `Cc1cc(NS(=O)(=O)c2ccc(NC(=O)c3cccc4c(Nc5ccc(S(N)(=O)=O)cc5)c5ccccc5nc34)cc2)no1`, the GI50 in assay [1] was > 100 µM (inactive); in assay [2] it was > 100 µM (inactive); in assay [3] it was 87.7 µM (inactive); in [4], 97.3 µM (inactive); in [5] it was > 100 µM (inactive); in assay [6], 73.6 µM (inactive). In addition, the GI50 in assay [7] was over 100 µM; in assay [8] it was 60 µM (inactive); in assay [9], > 100 µM (inactive); in [10], 96.8 µM (inactive); in assay [11], > 100 µM (inactive); in assay [12] it was > 100 µM (inactive). Besides, the GI50 was 57 µM (inactive) in assay [13], > 100 µM (inactive) in [14], 80.9 µM (inactive) in assay [15] and > 100 µM (inactive) in assay [16].
With `Cc1ccc(NC(=O)c2cccc([N+](=O)[O-])c2O)c(C)c1`, the GI50 was 19.3 µM (inactive) in [1]; 11.6 µM (inactive) in assay [2]; 24 µM (inactive) in [3]; 24.2 µM (inactive) in assay [4]; 28.4 µM (inactive) in assay [17]; 23 µM (inactive) in assay [5]. Also, the GI50 in assay [6] is 14.5 µM (inactive); in [18] it was 17.1 µM (inactive); in [8], 23.5 µM (inactive); in assay [19] it was 23.9 µM (inactive); in [9], 36.6 µM (inactive); in [10], 17.1 µM (inactive). For the same compound, the GI50 in [11] was 12.9 µM (inactive); in assay [12], 15.8 µM (inactive); in assay [13], 27.7 µM (inactive); in assay [20], 20.1 µM (inactive); in assay [14], 20.5 µM (inactive); in assay [15] it was 22.3 µM (inactive). For the same compound, the GI50 in [16] was 4.03 µM (inactive).
Regarding `COc1ccc(-c2nnc(-c3ccncc3)o2)cc1`, the GI50 in assay [1] is > 100 µM (inactive); in assay [2], > 100 µM (inactive); in assay [3] it was > 100 µM (inactive); in assay [4] it was 78.7 µM (inactive); in assay [5], > 100 µM (inactive); in assay [6], > 100 µM (inactive). In addition, the GI50 in assay [18] is > 100 µM (inactive); in assay [7], over 100 µM; in [8] it was > 100 µM (inactive); in assay [19], > 100 µM (inactive); in assay [9], > 100 µM (inactive); in assay [10] it was > 100 µM (inactive). The GI50 in [11], in assay [12], in [20], in assay [14], in assay [15] and in assay [16] was > 100 µM (inactive) throughout.
Turning to `CC(=C/c1ccccc1)/C=C1/NC(=S)N(/C=C2\C(=O)Oc3ccccc3C2=O)C1=O`, the GI50 in assay [1] is 38.1 µM (inactive); in [2], 34.9 µM (inactive); in [3], 41.3 µM (inactive); in assay [4] it was 65.6 µM (inactive); in [5], 41.6 µM (inactive); in assay [6], 96.6 µM (inactive). Also, the GI50 in assay [18] is 67.9 µM (inactive); in [7] it was 45.7 µM; in assay [8] it was > 100 µM (inactive); in [19] it was 36.7 µM (inactive); in assay [9] it was 54 µM (inactive); in assay [10], 27.9 µM (inactive). Further, the GI50 in [11] is 56.4 µM (inactive); in assay [12], 98.6 µM (inactive); in assay [13], 27.5 µM (inactive); in assay [20] it was > 100 µM (inactive); in [14] it was > 100 µM (inactive); in assay [15] it was 38.1 µM (inactive).

(Values after ChEMBL document CHEMBL1201862, “PubChem BioAssay data set” (2004).)
